Converted amounts (≈) assume the structure as drawn.
Assays:
[1] = system: RPMI8226 (multiple myeloma); assay: MTT growth inhibition of multiple myeloma cells, 72 h; type: cell-based, human
Procedure, shortened: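 RPMI8226 cells (6000/well) in 1640 medium with 10% FBS were exposed to graded compound concentrations for 72 h at 37 °C, 5% CO2. Viable cells were read by MTT, normalised to untreated control as 100% viability, and 72 h IC50 calculated.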

[2] = system: Kasumi-1 (acute myeloid leukemia M2 type, AML-M2); assay: MTT growth inhibition of leukemia cells, 72 h; type: cell-based, human
Procedure, shortened: (§1)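 Seed 6000 cells/well (1640, 10% FBS); add compound at several concentrations, mix; incubate 72 h, 37 °C, 5% CO2; MTT read; % viability vs untreated control; IC50 at 72 h.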

[3] = system: Jurkat (acute lymphoblastic leukemia, ALL); assay: MTT growth inhibition of leukemia cells, 72 h; type: cell-based, human
Procedure, shortened: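 Jurkat human acute lymphoblastic leukemia cells were seeded at 6000 cells per well in 96-well plates containing 1640 medium with 10% fetal bovine serum. Test compounds were added across a range of concentrations, and plates were held at 37° C. in 5% CO2 for 72 hours before viable cells were quantified by MTT.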

[4] = system: H9 (acute lymphoblastic leukemia, ALL); assay: MTT growth inhibition of leukemia cells, 72 h; type: cell-based, human; conditions: MTT
Procedure, shortened: as §1

[5] = system: K562/adr (drug-resistant, chronic myeloid leukemia, CML); assay: MTT growth inhibition of leukemia cells, 72 h; type: cell-based, human; conditions: MTT
Procedure, shortened: as §1

[6] = system: NB4 (acute promyelocytic leukemia, AML); assay: MTT growth inhibition of leukemia cells, 72 h; type: cell-based, human; conditions: MTT
Procedure, shortened: as §1

[7] = system: Huh7 (human liver cancer cell); assay: MTT growth inhibition of human solid tumor cells, 72 h; type: cell-based
Procedure, shortened: (§2)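 MTT determination of viable cells gives percent viability, normalised to untreated wells taken as 100%. Cells (4000 per well) grew 24 h in serum-supplemented DMEM high glucose, then faced graded compound concentrations for 72 h at 37° C under 5% CO2.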

[8] = system: PANC-1 (pancreatic cancer); assay: as above; type: cell-based
Procedure, shortened: as §2

[9] = system: RKO (human colon adenocarcinoma cell); assay: as above; type: cell-based
Procedure, shortened: as §2

[10] = system: U87 MG (malignant glioma cell); assay: as above; type: cell-based
Procedure, shortened: as §2

[11] = system: MGC 803 (human gastric cancer cell); assay: as above; type: cell-based
Procedure, shortened: as §2

[12] = system: PC-3 (prostate cancer); assay: as above; type: cell-based; conditions: MTT
Procedure, shortened: as §2

[13] = system: A549 (human lung cancer); assay: as above; type: cell-based
Procedure, shortened: as §2

[14] = system: CaES-17 (esophageal cancer cell); assay: as above; type: cell-based
Procedure, shortened: as §2

[15] = system: Becap37 (human breast cancer cell); assay: as above; type: cell-based
Procedure, shortened: as §2

[16] = system: SK-OV-3 (ovarian cancer cell); assay: as above; type: cell-based
Procedure, shortened: as §2

[17] = system: MG63 (osteosarcoma); assay: as above; type: cell-based
Procedure, shortened: as §2

[18] = system: CNE (nasopharyngeal carcinoma cell); assay: as above; type: cell-based
Procedure, shortened: as §2

[19] = system: Hep-2 (laryngeal carcinoma); assay: as above; type: cell-based
Procedure, shortened: as §2

[20] = system: Hela (human cervical cancer cell); assay: as above; type: cell-based
Procedure, shortened: as §2

## COC(=O)C[C@](O)(CCCC(C)(C)OC(=O)c1scnc1C)C(=O)O[C@@H]1C(OC)=C[C@]23CCCN2CCc2cc4c(cc2[C@H]13)OCO4 [BS-HH-0721]
[1]; Homo sapiens, RPMI-8226, MTT
  IC50: 0.002 µg/mL (≈ 0.00298 µM)
  IC90: 0.014 µg/mL (≈ 0.0209 µM)
[2]; Homo sapiens, Kasumi 1, MTT
  IC50: 0.002 µg/mL (≈ 0.00298 µM)
  IC90: 0.004 µg/mL (≈ 0.00596 µM)
[3]; Homo sapiens, Jurkat
  IC50: 0.002 µg/mL (≈ 0.00298 µM)
  IC90: ≥ 16 µg/mL
[4]; Homo sapiens
  IC50: 0.003 µg/mL (≈ 0.00447 µM)
  IC90: 0.009 µg/mL (≈ 0.0134 µM)
[5]; Homo sapiens, K562/Adr
  IC50: 0.01 µg/mL (≈ 0.0149 µM)
  IC90: 0.05 µg/mL (≈ 0.0745 µM)
[6]; Homo sapiens
  IC50: 0.003 µg/mL (≈ 0.00447 µM)
  IC90: 0.005 µg/mL (≈ 0.00745 µM)
[7]; Homo sapiens, Huh-7
  IC50: 0.0022 µg/mL (≈ 0.00328 µM)
  IC90: 0.038 µg/mL (≈ 0.0567 µM)
[8]; Homo sapiens, PANC-1, MTT
  IC50: 0.009 µg/mL (≈ 0.0134 µM)
  IC90: > 16 µg/mL
[8]; vs HHT
  anti-PANC-1 effect relative to homoharringtonine: > 4 fold
[9]; Homo sapiens, MTT
  IC50: 0.0009 µg/mL (≈ 0.00134 µM)
  IC90: 0.005 µg/mL (≈ 0.00745 µM)
[9]; vs HHT
  anti-RKO effect relative to homoharringtonine: substantially superior
[10]; Homo sapiens, U-87 MG
  IC50: 0.008 µg/mL (≈ 0.0119 µM)
  IC90: 0.07 µg/mL (≈ 0.104 µM)
[11]; Homo sapiens, MGC-803
  IC50: 0.006 µg/mL (≈ 0.00894 µM)
  IC90: 0.019 µg/mL (≈ 0.0283 µM)
[12]; Homo sapiens
  IC50: 0.04 µg/mL (≈ 0.0596 µM)
  IC90: > 16 µg/mL
[13]; Homo sapiens, A549
  IC50: 0.01 µg/mL (≈ 0.0149 µM)
  IC90: > 16 µg/mL
[14]; Homo sapiens, CaEs17
  IC50: 0.014 µg/mL (≈ 0.0209 µM)
  IC90: 16 µg/mL (≈ 23.9 µM)
[15]; Homo sapiens
  IC50: 0.003 µg/mL (≈ 0.00447 µM)
  IC90: 8.17 µg/mL (≈ 12.2 µM)
[16]; Homo sapiens, SK-OV-3, MTT
  IC50: 0.022 µg/mL (≈ 0.0328 µM)
  IC90: > 16 µg/mL
[17]; Homo sapiens, MG-63, MTT
  IC50: 0.006 µg/mL (≈ 0.00894 µM)
  IC90: 0.44 µg/mL (≈ 0.656 µM)
[17]; vs HHT
  anti-MG63 effect relative to homoharringtonine: substantially superior
[18]; Homo sapiens, MTT
  IC50: 0.0037 µg/mL (≈ 0.00552 µM)
  IC90: > 16 µg/mL
[18]; vs HHT
  anti-CNE effect relative to homoharringtonine: more than 10 fold
[19]; Homo sapiens, HEp-2
  IC50: 0.004 µg/mL (≈ 0.00596 µM)
  IC90: > 16 µg/mL
[20]; Homo sapiens, HeLa, MTT
  IC50: 0.005 µg/mL (≈ 0.00745 µM)
  IC90: 16 µg/mL (≈ 23.9 µM)
[20]; vs HHT
  anti-Hela effect relative to homoharringtonine: > 4.0 fold

## COC(=O)C[C@](O)(CCCC(C)(C)OC(=O)c1cnoc1C)C(=O)O[C@@H]1C(OC)=C[C@]23CCCN2CCc2cc4c(cc2[C@H]13)OCO4 [BS-HH-061]
[1]; MTT
  IC50 RPMI8226: 0.062 µg/mL (≈ 0.0947 µM)
  IC90 RPMI8226: 0.25 µg/mL (≈ 0.382 µM)
[2]; MTT
  IC50 Kasumi-1: 0.062 µg/mL (≈ 0.0947 µM)
  IC90 Kasumi-1: 0.23 µg/mL (≈ 0.351 µM)
[3]
  IC50 Jurkat: 0.071 µg/mL (≈ 0.108 µM)
  IC90 Jurkat: ≥ 16 µg/mL
[4]
  IC50 H9: 0.14 µg/mL (≈ 0.214 µM)
  IC90 H9: 0.25 µg/mL (≈ 0.382 µM)
[5]
  IC50 K562/adr: 0.24 µg/mL (≈ 0.367 µM)
  IC90 K562/adr: 12.57 µg/mL (≈ 19.2 µM)
[6]
  IC50 NB4: 0.07 µg/mL (≈ 0.107 µM)
  IC90 NB4: 0.14 µg/mL (≈ 0.214 µM)
[7]
  IC50 Huh7: 0.056 µg/mL (≈ 0.0855 µM)
  IC90 Huh7: 0.34 µg/mL (≈ 0.519 µM)
[8]; MTT
  IC50 PANC-1: 0.21 µg/mL (≈ 0.321 µM)
  IC90 PANC-1: >16 µg/mL
[9]; MTT
  IC50 RKO: 0.039 µg/mL (≈ 0.0596 µM)
  IC90 RKO: 0.24 µg/mL (≈ 0.367 µM)
[10]
  IC50 U87 MG: 0.31 µg/mL (≈ 0.473 µM)
  IC90 U87 MG: 0.96 µg/mL (≈ 1.47 µM)
[11]
  IC50 MGC 803: 0.058 µg/mL (≈ 0.0886 µM)
  IC90 MGC 803: 0.16 µg/mL (≈ 0.244 µM)
[12]
  IC50 PC-3: 3.15 µg/mL (≈ 4.81 µM)
  IC90 PC-3: >16 µg/mL
[13]
  IC50 A549: 0.52 µg/mL (≈ 0.794 µM)
  IC90 A549: >16 µg/mL
[14]
  IC50 CaES-17: 0.38 µg/mL (≈ 0.58 µM)
  IC90 CaES-17: 16 µg/mL (≈ 24.4 µM)
[15]
  IC50 Becap37: 0.17 µg/mL (≈ 0.26 µM)
  IC90 Becap37: 16 µg/mL (≈ 24.4 µM)
[16]; MTT
  IC50 SK-OV-3: 0.4 µg/mL (≈ 0.611 µM)
  IC90 SK-OV-3: >16 µg/mL
[17]; MTT
  IC50 MG 63: 0.093 µg/mL (≈ 0.142 µM)
  IC90 MG 63: 10.76 µg/mL (≈ 16.4 µM)
[18]; MTT
  IC50 CNE: 0.42 µg/mL (≈ 0.642 µM)
  IC90 CNE: >16 µg/mL
[19]
  IC50 Hep-2: 0.39 µg/mL (≈ 0.596 µM)
  IC90 Hep-2: >16 µg/mL
[20]; MTT
  IC50 Hela: 0.31 µg/mL (≈ 0.473 µM)
  IC90 Hela: 16 µg/mL (≈ 24.4 µM)
